Experiment: in vitro
Conditions: human, hela cells, % viability

CCOC(=O)Cn1ncc2c3sc(C)cc3n(CC)c2c1=O [CBK284185]
viability at 28.5 h, 10 µM: 87.1%

O=S(=O)(c1ccc(I)cc1)n1ccc2c(N3CCNCC3)cncc21 [CBK081326C]
viability at 28.5 h, 10 µM: 84.9%

Cc1noc2nc(C3CCN(C(=O)C4CC4C)CC3)cc(C(F)F)c12 (stereo not drawn) [CBK285307]
viability at 28.5 h, 10 µM: 93%

O=C(NC1Cc2ccccc2C1)c1ccno1 [CBK200358]
viability at 28.5 h, 10 µM: 99.4%

CC(C)Cn1cnc(S(=O)(=O)N2CCN(CC(=O)NC3CC3)CC2)c1 [CBK304223]
viability at 28.5 h, 10 µM: 95.8%

CC(=O)Nc1ccc(S(=O)(=O)N2CCN(S(=O)(=O)N3CCCCCC3)CC2)cc1 [CBK268983]
viability at 28.5 h, 10 µM: 99.3%

O=C(Oc1ccc(/C=N/c2ccc(O)c(-c3nc4ccccc4s3)c2)cc1)c1ccccc1Cl [CBK261241]
viability at 28.5 h, 10 µM: 89.9%

CCc1noc(C)c1C(=O)N1CCN(C(C#N)C2CCCCC2)CC1 (stereo not drawn) [CBK304916]
viability at 28.5 h, 10 µM: 88.8%

COc1cc(CNC(=O)NC(=O)C2CCN(C(C)C)CC2)cc(OC)c1OC [CBK034800]
viability at 28.5 h, 10 µM: 82.9%

Cc1ccc(Cc2cnc(NC(=O)NC3CCOCC3)s2)cc1Cl [CBK304440]
viability at 28.5 h, 10 µM: 82.2%

O=C(Nc1ccncc1)c1cc2cc(Cl)ccc2[nH]1 [CBK107340]
viability at 28.5 h, 10 µM: 95%

COc1cc(C(=O)N2CCC3(CC2)NC(=O)c2cc(C)ccc2O3)ccc1C [CBK166276]
viability at 28.5 h, 10 µM: 108%

CC(C)CNC(=O)c1cc([C@H]2CC[C@H](CNC(=O)Cn3cccn3)CC2)nc2ccccc12 [CBK285860]
viability at 28.5 h, 10 µM: 102%

Cc1[nH]c(=O)[nH]c(=O)c1N(CCO)CCO [CBK262052]
viability at 28.5 h, 10 µM: 94.8%

O=C(O)c1ccc(CNCCN2CCOCC2)cc1 [CBK287223]
viability at 28.5 h, 10 µM: 101%

CC(C)[C@@H](CO)n1c(=O)[nH]c2ncc(-c3cccc4ccccc34)nc21 [CBK064961]
viability at 28.5 h, 10 µM: 98.6%

O=S(=O)(Nc1cccc(-c2nnn[nH]2)c1)c1cc(Br)c(Cl)s1 [CBK160374]
viability at 28.5 h, 10 µM: 102%

Cc1nc(-c2ccco2)nc2sc(C(=O)N(C)CC3COc4ccccc4O3)c(C)c12 (stereo not drawn) [CBK295347]
viability at 28.5 h, 10 µM: 105%

CCCC/C=C/c1nccnc1N[C@@H](C)c1ccccc1 [CBK037138]
viability at 28.5 h, 10 µM: 84.7%

Cc1cc(N2CCN(C(=O)OC(C)(C)C)CC2)nc(N)n1 [CBK001843]
viability at 28.5 h, 10 µM: 110%

Cc1ccc(O)c(NC(=O)c2nc3ncccn3n2)c1 [CBK267629]
viability at 28.5 h, 10 µM: 99.6%

C=C(C)Cn1c(SC(C)C)nnc1-c1ccccc1OC [CBK200072]
viability at 28.5 h, 10 µM: 97.1%

COc1ccccc1OCCOc1c(Cl)cc(/C=C2\SC(=S)NC2=O)cc1Cl [CBK264848]
viability at 28.5 h, 10 µM: 93.9%

CS(=O)(=O)Nc1nnc(C2CCCCC2)s1 [CBK069540]
viability at 28.5 h, 10 µM: 95.6%

Cc1nc(C)c(C(=O)N2CCC(c3cc4cccnc4[nH]3)CC2)s1 [CBK284998]
viability at 28.5 h, 10 µM: 88.5%

O=C1c2ccc(Oc3ccc4c(c3)C(=O)N(c3ccncc3)C4=O)cc2C(=O)N1c1ccncc1 [CBK261399]
viability at 28.5 h, 10 µM: 96.5%

Cc1c(-c2cc(C(=O)NC(C)C3CC4CCC3C4)on2)cnn1C (stereo not drawn) [CBK281651]
viability at 28.5 h, 10 µM: 92.8%

CC(C)(C)C1CCC(OC(=O)CCC(=O)O)CC1 (stereo not drawn) [CBK026882]
viability at 28.5 h, 10 µM: 105%

COCOc1ccc(-c2ncc(OC)nc2NC(=O)c2cc(C)oc2C)cc1 [CBK145249]
viability at 28.5 h, 10 µM: 97.6%

O=C(NC1CCN(Cc2ccccc2)C1)c1ccc(F)cc1 (stereo not drawn) [CBK283044]
viability at 28.5 h, 10 µM: 97.8%

CC(CC(=O)N1CCC(c2cc3cccnc3[nH]2)CC1)n1ccnc1 (stereo not drawn) [CBK285028]
viability at 28.5 h, 10 µM: 107%

Nc1nnc(SCC(=O)N(Cc2ccccc2F)C2CC2)s1 [CBK295179]
viability at 28.5 h, 10 µM: 84.3%

CS(=O)(=O)N1CCc2cc(S(=O)(=O)NCCc3c[nH]c4ccccc34)ccc21 [CBK268487]
viability at 28.5 h, 10 µM: 101%

CC1=NN(c2ccccc2F)C(=O)C1 [CBK067773]
viability at 28.5 h, 10 µM: 96.8%

O=C(NS(=O)(=O)c1cccc(-c2nnco2)c1)C1CC1C1CCCCC1 (stereo not drawn) [CBK305924]
viability at 28.5 h, 10 µM: 90.8%

CCNC(=S)N1CCN(C(=O)c2cccc(OC)c2)CC1 [CBK154778]
viability at 28.5 h, 10 µM: 97.3%

From paper PMC12040169 (PLOS Biology, 2025)
